# Laboratory results from ChEMBL document CHEMBL5696442, “Discovery of type II inhibitors of TGFβ-activated kinase 1 (TAK1) and mitogen-activated protein kinase kinase kinase kinase 2 (MAP4K2)” (J Med Chem, 2015).
# pIC50: −log10 of the molar value.
# Assays:
# [1] = molecular target: T1, Mitogen-activated protein kinase kinase kinase 2 (Homo sapiens) (UniProt Q9Y2U5); experiment: Inhibition of MAP3K2 K1 labeling site in human Huh-7 cells at 10 uM by KiNativ Profiling analysis relative to control; type: cell-based
# T1 sequence (whole entry): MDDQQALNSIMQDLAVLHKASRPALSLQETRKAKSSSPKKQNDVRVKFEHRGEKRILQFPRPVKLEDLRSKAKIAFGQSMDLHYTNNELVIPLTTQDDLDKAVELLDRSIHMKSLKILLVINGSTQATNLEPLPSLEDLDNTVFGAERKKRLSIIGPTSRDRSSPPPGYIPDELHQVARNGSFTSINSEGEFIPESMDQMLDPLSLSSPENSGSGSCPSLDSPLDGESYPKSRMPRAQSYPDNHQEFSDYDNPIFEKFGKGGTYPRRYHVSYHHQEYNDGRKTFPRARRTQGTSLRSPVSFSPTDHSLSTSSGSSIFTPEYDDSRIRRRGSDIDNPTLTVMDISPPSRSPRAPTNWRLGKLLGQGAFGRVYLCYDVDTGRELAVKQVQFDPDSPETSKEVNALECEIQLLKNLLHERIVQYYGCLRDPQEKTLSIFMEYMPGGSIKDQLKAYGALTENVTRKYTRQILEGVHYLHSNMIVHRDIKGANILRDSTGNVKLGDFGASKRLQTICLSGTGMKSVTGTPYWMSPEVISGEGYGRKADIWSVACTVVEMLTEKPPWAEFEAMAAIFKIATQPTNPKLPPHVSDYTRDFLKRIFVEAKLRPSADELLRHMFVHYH
# [2] = molecular target: Tyrosine-protein kinase TXK (Homo sapiens) (UniProt P42681); experiment: Inhibition of TXK (unknown origin) at 10 uM by Ambit Kinomescan binding assay relative to control; values are per cent of control
# [3] = molecular target: Serine/threonine-protein kinase N2 (Homo sapiens) (UniProt Q16513); experiment: Inhibition of PKN2 K2 labeling site in human Huh-7 cells at 1 uM by KiNativ Profiling analysis relative to control; type: cell-based
# [4] = molecular target: Ephrin type-A receptor 4 (Homo sapiens) (UniProt P54764); experiment: Inhibition of EPHA4 (unknown origin) at 1 uM by Ambit Kinomescan binding assay relative to control; values are per cent of control
# [5] = molecular target: RAF proto-oncogene serine/threonine-protein kinase (Homo sapiens, UniProt P04049); experiment: Inhibition of RAF1 (unknown origin) Lys2 labeling site by KiNativ Profiling analysis
# [6] = tested on: Leucine-rich repeat serine/threonine-protein kinase 2 (Homo sapiens), Q5S007 [G2019S]; experiment: Inhibition of LRRK2 G2019S mutant (unknown origin) at 1 uM by Ambit Kinomescan binding assay relative to control; values are per cent of control
# [7] = molecular target: T2, Serine/threonine-protein kinase STK11 (Homo sapiens) (UniProt Q15831); experiment: Inhibition of LKB1 (unknown origin) at 1 uM by Ambit Kinomescan binding assay relative to control; values are per cent of control
# T2 sequence (whole entry): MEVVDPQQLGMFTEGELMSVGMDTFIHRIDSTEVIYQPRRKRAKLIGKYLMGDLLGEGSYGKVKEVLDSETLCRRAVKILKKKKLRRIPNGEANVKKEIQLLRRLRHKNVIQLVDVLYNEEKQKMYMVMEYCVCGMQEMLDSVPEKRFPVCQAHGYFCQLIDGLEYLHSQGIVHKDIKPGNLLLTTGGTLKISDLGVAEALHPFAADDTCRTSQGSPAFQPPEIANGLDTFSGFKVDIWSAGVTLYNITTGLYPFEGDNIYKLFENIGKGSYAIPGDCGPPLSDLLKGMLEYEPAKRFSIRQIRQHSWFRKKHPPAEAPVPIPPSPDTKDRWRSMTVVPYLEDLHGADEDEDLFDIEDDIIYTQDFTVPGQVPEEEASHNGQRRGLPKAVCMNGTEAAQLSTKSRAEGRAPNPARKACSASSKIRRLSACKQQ
# [8] = molecular target: T3, Phosphatidylinositol 4,5-bisphosphate 3-kinase catalytic subunit delta isoform (Homo sapiens) (UniProt O00329); experiment: Inhibition of PIK3CD ATP labeling site in human A-375 cells at 0.5 uM by KiNativ Profiling analysis relative to control; type: cell-based
# T3 sequence (whole entry): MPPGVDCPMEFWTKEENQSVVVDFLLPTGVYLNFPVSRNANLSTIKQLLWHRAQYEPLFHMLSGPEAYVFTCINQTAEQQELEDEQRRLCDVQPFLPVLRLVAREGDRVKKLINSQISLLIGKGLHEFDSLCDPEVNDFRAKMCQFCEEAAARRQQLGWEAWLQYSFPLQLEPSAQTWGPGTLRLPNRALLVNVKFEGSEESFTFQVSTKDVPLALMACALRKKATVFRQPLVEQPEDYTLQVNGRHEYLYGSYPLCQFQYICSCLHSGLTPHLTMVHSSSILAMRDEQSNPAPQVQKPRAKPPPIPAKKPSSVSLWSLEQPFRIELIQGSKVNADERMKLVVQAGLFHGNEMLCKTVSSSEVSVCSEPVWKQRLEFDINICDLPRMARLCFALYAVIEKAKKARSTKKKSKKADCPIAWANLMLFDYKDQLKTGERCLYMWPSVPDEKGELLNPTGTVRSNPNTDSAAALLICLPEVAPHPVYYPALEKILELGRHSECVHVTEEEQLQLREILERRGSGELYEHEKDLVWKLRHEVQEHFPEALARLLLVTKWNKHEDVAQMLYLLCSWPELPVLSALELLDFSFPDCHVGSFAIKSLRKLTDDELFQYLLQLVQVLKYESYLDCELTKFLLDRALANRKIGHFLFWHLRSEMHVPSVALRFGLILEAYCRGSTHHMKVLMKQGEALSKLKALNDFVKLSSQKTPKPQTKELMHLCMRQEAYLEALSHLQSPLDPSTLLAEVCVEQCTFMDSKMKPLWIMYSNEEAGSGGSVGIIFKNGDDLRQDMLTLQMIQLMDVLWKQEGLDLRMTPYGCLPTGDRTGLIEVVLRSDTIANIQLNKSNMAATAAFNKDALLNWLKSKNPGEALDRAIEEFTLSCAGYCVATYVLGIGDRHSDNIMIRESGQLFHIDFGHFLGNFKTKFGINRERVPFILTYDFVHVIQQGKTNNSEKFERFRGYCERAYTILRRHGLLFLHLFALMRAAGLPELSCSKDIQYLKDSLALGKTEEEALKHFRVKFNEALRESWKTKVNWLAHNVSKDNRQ
# Sequence of Ephrin type-A receptor 4 (Homo sapiens) (P54764 whole entry): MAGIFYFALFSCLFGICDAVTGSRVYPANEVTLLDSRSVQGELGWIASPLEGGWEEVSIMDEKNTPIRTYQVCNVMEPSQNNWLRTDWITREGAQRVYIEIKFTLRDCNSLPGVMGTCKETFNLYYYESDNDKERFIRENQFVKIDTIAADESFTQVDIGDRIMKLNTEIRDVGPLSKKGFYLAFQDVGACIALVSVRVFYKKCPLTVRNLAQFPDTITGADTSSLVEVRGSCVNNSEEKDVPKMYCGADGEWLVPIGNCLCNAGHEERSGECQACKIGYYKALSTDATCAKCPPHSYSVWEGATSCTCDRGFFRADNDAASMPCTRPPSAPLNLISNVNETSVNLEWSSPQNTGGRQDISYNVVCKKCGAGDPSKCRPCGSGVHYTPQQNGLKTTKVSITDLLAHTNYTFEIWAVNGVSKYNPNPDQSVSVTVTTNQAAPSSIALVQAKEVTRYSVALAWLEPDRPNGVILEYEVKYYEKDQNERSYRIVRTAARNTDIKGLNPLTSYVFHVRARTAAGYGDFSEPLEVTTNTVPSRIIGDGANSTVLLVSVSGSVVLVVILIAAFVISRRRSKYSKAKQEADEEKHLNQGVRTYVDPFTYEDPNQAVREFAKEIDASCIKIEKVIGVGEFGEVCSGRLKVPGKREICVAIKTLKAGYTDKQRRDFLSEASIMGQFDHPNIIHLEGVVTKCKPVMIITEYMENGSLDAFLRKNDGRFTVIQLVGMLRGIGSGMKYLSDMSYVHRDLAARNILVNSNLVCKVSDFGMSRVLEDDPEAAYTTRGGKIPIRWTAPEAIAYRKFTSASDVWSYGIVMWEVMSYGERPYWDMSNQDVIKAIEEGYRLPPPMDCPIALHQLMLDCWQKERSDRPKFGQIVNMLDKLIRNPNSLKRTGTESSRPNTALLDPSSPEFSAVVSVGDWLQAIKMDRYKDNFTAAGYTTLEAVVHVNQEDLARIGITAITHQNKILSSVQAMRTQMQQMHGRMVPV
# Sequence of Leucine-rich repeat serine/threonine-protein kinase 2 (Homo sapiens), Q5S007 [G2019S] (Q5S007 whole entry G2019S): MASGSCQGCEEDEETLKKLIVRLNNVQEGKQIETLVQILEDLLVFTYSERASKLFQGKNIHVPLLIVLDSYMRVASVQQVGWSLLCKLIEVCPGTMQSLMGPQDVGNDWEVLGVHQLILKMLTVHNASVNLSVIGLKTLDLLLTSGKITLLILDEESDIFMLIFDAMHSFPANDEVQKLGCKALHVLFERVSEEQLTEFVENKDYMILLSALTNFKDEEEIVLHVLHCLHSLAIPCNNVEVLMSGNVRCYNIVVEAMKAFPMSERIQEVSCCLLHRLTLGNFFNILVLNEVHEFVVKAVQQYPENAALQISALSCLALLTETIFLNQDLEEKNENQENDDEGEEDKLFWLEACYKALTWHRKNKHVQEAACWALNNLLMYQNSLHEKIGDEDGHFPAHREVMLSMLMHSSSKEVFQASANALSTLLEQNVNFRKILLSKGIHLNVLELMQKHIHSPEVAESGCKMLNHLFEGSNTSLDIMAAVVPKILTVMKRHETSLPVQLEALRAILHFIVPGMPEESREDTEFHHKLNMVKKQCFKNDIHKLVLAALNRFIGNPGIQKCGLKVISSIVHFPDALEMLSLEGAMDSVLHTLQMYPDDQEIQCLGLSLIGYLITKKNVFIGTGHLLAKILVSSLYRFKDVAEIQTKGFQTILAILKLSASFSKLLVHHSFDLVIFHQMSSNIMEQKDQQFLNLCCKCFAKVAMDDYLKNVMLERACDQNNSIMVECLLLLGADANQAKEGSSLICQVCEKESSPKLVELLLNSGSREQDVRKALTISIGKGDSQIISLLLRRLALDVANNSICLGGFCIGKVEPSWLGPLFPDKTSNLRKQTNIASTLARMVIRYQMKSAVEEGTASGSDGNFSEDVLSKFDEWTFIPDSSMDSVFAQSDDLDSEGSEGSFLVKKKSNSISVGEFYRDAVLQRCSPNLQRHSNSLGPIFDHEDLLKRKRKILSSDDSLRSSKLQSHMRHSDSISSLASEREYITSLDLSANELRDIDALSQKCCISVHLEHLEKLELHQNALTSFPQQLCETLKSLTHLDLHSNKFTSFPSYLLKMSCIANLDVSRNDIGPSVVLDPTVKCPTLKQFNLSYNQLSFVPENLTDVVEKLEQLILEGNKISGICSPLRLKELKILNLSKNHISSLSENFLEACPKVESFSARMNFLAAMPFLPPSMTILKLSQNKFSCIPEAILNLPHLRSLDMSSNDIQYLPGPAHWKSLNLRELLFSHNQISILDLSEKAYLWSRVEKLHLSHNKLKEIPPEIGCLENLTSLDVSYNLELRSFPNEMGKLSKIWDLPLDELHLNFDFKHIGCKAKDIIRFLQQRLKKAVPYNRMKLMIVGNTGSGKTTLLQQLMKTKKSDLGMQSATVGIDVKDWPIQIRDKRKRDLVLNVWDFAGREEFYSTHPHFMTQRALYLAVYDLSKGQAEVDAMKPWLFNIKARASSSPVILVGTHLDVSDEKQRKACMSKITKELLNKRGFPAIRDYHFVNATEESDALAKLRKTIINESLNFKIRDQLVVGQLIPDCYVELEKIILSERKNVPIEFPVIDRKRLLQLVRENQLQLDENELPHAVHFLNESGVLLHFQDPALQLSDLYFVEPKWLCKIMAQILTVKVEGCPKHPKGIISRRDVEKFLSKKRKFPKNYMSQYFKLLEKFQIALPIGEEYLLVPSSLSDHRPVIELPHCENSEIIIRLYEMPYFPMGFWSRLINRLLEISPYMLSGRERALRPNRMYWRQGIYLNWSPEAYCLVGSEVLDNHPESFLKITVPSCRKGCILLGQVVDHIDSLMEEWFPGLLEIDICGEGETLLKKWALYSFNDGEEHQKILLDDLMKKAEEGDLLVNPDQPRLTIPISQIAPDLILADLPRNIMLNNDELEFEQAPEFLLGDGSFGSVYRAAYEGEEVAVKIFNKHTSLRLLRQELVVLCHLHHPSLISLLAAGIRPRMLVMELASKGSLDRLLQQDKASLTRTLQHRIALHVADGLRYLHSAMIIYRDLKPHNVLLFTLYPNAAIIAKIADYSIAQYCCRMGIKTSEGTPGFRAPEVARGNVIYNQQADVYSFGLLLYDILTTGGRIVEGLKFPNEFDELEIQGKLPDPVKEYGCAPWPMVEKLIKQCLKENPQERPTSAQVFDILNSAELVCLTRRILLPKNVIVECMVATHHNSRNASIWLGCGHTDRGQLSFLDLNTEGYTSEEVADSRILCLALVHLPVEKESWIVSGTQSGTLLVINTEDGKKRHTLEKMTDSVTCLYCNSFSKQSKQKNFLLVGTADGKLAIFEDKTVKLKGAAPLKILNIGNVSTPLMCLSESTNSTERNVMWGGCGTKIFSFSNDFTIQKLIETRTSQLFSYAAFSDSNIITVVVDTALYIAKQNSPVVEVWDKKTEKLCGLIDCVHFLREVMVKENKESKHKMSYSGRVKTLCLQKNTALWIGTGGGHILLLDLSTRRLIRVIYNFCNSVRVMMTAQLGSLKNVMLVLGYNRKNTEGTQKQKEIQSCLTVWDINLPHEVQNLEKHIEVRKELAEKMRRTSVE
# Sequence of RAF proto-oncogene serine/threonine-protein kinase (P04049 whole entry): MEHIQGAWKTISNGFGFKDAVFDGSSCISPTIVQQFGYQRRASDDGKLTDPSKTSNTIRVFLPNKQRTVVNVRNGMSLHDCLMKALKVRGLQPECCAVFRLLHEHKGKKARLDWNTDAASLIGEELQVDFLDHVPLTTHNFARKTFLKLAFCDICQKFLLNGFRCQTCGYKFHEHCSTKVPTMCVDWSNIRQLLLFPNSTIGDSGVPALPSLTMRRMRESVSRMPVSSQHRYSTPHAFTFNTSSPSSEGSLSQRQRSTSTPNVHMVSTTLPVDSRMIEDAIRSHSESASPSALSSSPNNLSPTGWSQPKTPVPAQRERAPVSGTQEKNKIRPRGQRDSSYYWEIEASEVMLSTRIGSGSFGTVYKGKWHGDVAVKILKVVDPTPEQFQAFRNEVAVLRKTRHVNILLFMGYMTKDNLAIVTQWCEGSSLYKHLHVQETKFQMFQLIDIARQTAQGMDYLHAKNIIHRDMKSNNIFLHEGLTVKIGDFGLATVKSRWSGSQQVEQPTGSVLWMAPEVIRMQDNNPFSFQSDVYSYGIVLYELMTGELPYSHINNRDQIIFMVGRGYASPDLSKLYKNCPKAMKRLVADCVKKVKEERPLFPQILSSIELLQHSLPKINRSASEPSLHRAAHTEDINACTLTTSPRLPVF
# Sequence of Tyrosine-protein kinase TXK (Homo sapiens) (P42681 whole entry): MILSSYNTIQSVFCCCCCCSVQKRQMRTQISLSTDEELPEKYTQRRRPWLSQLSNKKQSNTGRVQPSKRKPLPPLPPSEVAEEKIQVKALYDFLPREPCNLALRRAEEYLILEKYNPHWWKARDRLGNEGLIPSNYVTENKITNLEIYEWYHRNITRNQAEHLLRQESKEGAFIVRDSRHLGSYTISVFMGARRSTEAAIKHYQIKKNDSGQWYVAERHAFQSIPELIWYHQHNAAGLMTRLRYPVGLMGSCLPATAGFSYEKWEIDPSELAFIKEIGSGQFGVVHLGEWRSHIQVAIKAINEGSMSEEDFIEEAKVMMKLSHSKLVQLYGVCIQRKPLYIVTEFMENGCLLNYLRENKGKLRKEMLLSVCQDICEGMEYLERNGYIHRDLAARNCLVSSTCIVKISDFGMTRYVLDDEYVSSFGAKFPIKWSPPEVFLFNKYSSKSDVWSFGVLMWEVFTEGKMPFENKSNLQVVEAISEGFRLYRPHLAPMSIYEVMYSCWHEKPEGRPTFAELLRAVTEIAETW
Compound,inhibition [1],residual activity [2],inhibition [3],residual activity [4],pIC50 [5],residual activity [6],residual activity [7],inhibition [8]
CCN1CCN(Cc2ccc(NC(=O)c3ccc(C)c(Oc4ccnc5[nH]ccc45)c3)cc2C(F)(F)F)CC1,31.6%,12%,-6.3%,,,,,
CCN1CCN(Cc2ccc(NC(=O)c3ccc(C)c(/C=C/c4cnc5[nH]ccc5c4OC)c3)cc2C(F)(F)F)CC1,,,,3.7%,5.48,71%,58%,4.2%
